Laboratory results reported in patent publication US20030065039A1, “Biologically active 1,3-bis-aromatic-prop-2-en-1-ones, 1,3-bis-aromatic-propan-1-ones, and 1,3-bis-aromatic-prop-2-yn-1-ones” (Statens Serum Institute, priority 1997, published 2003).
Read-outs that look alike come from different tables or passages of the source.

Columns and labels:
[1] = biological target: T1, Helicobacter pylori fumarate reductase (Helicobacter pylori, UniProt O06913); assay type: biochemical; details: Control 19.2 ± 2.5
T1 construct: Membrane associated proteins were solubilized from the pellet in 150 mM KCl, pH 7.0; endogenous in cells; host or cells: Helicobacter pylori 007 strain; KCl-solubilised fraction (or sonicate supernatant)
T1 sequence (O06913 1-714): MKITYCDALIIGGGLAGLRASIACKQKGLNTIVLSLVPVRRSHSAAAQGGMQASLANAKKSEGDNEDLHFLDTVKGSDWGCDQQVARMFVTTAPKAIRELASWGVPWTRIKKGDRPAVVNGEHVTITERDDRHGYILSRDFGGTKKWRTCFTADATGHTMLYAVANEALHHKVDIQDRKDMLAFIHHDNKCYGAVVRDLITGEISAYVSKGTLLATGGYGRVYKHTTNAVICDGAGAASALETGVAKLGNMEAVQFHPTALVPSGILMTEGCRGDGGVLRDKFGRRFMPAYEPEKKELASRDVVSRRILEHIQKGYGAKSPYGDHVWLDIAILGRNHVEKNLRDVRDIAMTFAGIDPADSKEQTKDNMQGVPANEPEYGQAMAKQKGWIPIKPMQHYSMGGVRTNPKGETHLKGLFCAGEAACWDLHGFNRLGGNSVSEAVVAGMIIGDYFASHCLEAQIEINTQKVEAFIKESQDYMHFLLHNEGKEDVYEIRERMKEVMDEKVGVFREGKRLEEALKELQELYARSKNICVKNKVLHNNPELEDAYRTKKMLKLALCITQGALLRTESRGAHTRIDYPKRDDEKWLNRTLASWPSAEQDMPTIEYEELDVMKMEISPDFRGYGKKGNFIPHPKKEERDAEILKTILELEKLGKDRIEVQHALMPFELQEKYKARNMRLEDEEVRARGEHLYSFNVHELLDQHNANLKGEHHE
T1 sequence (O06914 1-245 partner): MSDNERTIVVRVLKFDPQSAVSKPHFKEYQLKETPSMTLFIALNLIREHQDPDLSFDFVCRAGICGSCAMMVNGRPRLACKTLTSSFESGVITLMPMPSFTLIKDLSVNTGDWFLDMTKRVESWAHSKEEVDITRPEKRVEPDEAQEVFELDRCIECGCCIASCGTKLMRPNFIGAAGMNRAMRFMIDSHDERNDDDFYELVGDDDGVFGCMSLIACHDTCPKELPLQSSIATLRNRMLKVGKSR
T1 sequence (O06912 1-255 partner): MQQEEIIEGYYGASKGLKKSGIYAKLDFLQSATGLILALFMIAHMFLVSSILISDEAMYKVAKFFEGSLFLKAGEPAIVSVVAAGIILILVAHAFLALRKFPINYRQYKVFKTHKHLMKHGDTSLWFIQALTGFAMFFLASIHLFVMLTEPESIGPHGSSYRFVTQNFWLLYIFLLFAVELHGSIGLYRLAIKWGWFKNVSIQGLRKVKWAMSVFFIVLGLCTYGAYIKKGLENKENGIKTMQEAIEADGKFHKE
Procedure: 1) Extraction of soluble FRD: Bacteria were harvested by centrifugation at 18,000 g for 10 min at 4° C., and were washed 2 times in an isotonic phosphate saline buffer (50 mM sodium phosphate, pH 7.2, 90 mM NaCl, 5 mM Kcl). Bacteria were lysed in 5 mM Tris-HCl, pH 7.4, for 15 minutes, and centrifuged 18,000 g for 10 minutes. Membrane associated proteins were solubilized from the pellet in 150 mM KCl, pH 7.0, in ice bath for 60 min, and then the supernatant was collected after centrifugation (18,000 g for 10 minutes) for the measurement of FRD activity.
2) Extraction of FRD by sonication: Bacteria were harvested by centrifugation at 18,000 g for 10 min at 4° C., were sonicated, and then the supernatant was collected after centrifugation (18,000 g for 10 minutes) for the measurement of FRD activity.
NADH-FRD activity was determined as the rate of NADH-oxidation upon addition of 1 mM fumarate in the KCl-solubilized fraction or sonicated fraction. The reaction was monitored spectrophotometrically at 340 nm (∈=6.2 mM^−1 cm^−1) using 100 μM NADH and usually 3 mg protein in both reference and sample cuvettes. The measurement was carried out in a Shimadzu UV-190 double-beam spectrophotometer. Protein concentrations were determined using a Bio-Rad protein assay (Bio-Rad Laboratories, 200 Alfred Nobel Dr. Hercules, Calif. 94547, USA).
KCl solubilised fraction of bacteria was incubated with different concentrations of various oxygenated chalcones at 28° C. and the remaining FRD activity was measured. The IC50 values were determined as the concentration at which 50% of the activity was inhibited.

[2] = test system: human embryonic lung (HEL) cells; assay: Cytotoxicity in human embryonic lung (HEL) cells; assay type: cell-based; details: HEL cell growth reduced by 50%; values given as fractions
[3] = test system: TNF-α; assay: TNF-α in lysate of stimulated human mononuclear cells (ELISA); assay type: cell-based; details: cells preincubated with compound, stimulated with SPAG or LPS
Procedure: Therefore, experiments were performed to examine the effect of Licochalcone A and SBC-35ma on secretion of TNF-α from the stimulated cells. These experiments included detection of the cytokines in the cell lysate by ELISA and staining of the intracellular cytokines by using monoclonal antibodies against these cytokines and cytokine receptors.

[4] = Preliminary 14 days oral toxicity study in rats; assay type: in vivo; details: highest dose level 1000 mg/kg/day
Procedure: A preliminary 14 days oral toxicity study in rats was carried out with 6 compounds. Observations included clinical signs, body weights, food intake, haematology, clinical chemistry and macroscopic pathology.

[5] = test system: Vero cell cultures; assay: Cytotoxicity in Vero cell cultures; assay type: cell-based; details: Vero cells; values given as fractions, footnote a not given
Excerpt: (§1) In the following is reported the results from a Vero cell culture infected with different viruses. The cell culture used as well as the methods applied are well known to a person skilled in the art.

[6] = test system: Parainfluenza-3 Virus; assay: Antiviral activity in Vero cell cultures; assay type: cell-based; details: Vero cells; values given as fractions
Procedure: (§2) IC50 values are determined by the virus plaque formation and/or the virus cytopathic assay using standard methods well-known in the art.
as §1

[7] = test system: Reovirus-1; assay: Antiviral activity in Vero cell cultures; assay type: cell-based; details: Vero cells; values given as fractions
Procedure: as §2, §1

[8] = test system: Simliki forest virus; assay: Antiviral activity in Vero cell cultures; assay type: cell-based; details: Vero cells; values given as fractions
Procedure: as §2, §1

[9] = test system: Coxsackie virus B4; assay: Antiviral activity in Vero cell cultures; assay type: cell-based; details: Vero cells; values given as fractions
Procedure: as §2, §1

[10] = test system: Sindbis virus; assay: Antiviral activity in Vero cell cultures; assay type: cell-based; details: Vero cells; values given as fractions
Procedure: as §2, §1

[11] = test system: cytomegalovirus AD-169 strain; assay: Activity against cytomegalovirus in HEL cells (plaque formation); assay type: cell-based; details: virus plaque formation reduced by 50%, 100 PFU, values given as fractions
Procedure: as §2

[12] = test system: cytomegalovirus Davis strain; assay: as above; assay type: cell-based; details: virus plaque formation reduced by 50%, 100 PFU, values given as fractions
Procedure: as §2

[13] = compound 50 (unit not given), mean±SD, three experiments

SMILES	FRD activity ([1]; compound 1 (unit not given))	FRD activity ([1]; compound 5 (unit not given))	FRD activity ([1]; compound 10 (unit not given))	FRD activity ([1]; compound 25 (unit not given))	FRD activity [1, 13]	Cytotoxicity CC50 [2]	intracellular TNF-α in the cell lysate (ELISA) [3]	toxic effects [4]	Minimum Cytotoxic Concentration [5]	Minimum inhibitory concentration, Parainfluenza-3 Virus [6]	Minimum inhibitory concentration, Reovirus-1 [7]	Minimum inhibitory concentration, Simliki forest virus [8]	Minimum inhibitory concentration, Coxsackie virus B4 [9]	Minimum inhibitory concentration, Sindbis virus [10]	Antiviral activity IC50, AD-169 strain, Assay 1 [11]	Antiviral activity IC50, Davis strain, Assay 1 [12]
C=CC(C)(C)c1cc(/C=C/C(=O)c2ccc(O)cc2)c(OC)cc1O [Licochalcone A]	14.5 ± 2.9 mu/mg of protein	6.8 ± 1.7 mu/mg of protein	2.5 ± 1.1 mu/mg of protein	0.9 ± 0.6 mu/mg of protein	0.0 mu/mg of protein	1/600	no intracellular TNF-α present	No toxic effects	<1/100	<1/100	<1/100	<1/100	<1/100	1/600	1/15000	1/50000
COc1cc(/C=C/C(=O)c2ccc([N+](=O)[O-])cc2)cc(OC)c1 [PH105, 4′-nitro-3,5-dimethoxychalcone]	15.8 ± 2.0 mu/mg of protein	8.5 ± 1.8 mu/mg of protein	4.1 ± 1.5 mu/mg of protein	1.7 ± 0.7 mu/mg of protein	0.0 mu/mg of protein											
C=CCOc1ccc(C(=O)/C=C/c2cc(OC)cc(OC)c2)cc1 [SBC-35ma, 3,5-dimethoxy-4′-allyloxychalcone]						<1/60	no intracellular TNF-α present	No toxic effects	<1/100	<1/100	<1/100	<1/100	<1/100	<1/100	<1/60	<1/60
